Assay results reported in PubChem BioAssay AID2060909 (Molecular Pharmacology Branch, DTP, NCI, 2025).

System: 362531-283-R-J2-PDC complex spheroid viability
Test: Anticancer human tumor 362531-283-R-J2-PDC patient-derived colon adenocarcinoma cell line growth inhibition [RAS]
Conditions: for IC50: curve of first compound; for viability, T/C: stronger effect = lower value
Summary of the method: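 Agents were tested in combination matrices in half-log decrements from a top concentration at or near clinical Cmax (10 microM if undetermined). Targets were multi-cell spheroids of tumour lines plus HUVEC and MSC stromal cells.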
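Further: spheroids exposed to the agents for 7 days before readout.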
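Wherever viability, T/C is given: luminescence viability as percent of DMSO vehicle control wells.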

In the case of `CC(C)NCC(C(=O)N1CCN(c2ncnc3c2C(C)CC3O)CC1)c1ccc(Cl)cc1` (centres undefined) + C=CC(=O)N1CCN(c2nc(OCC3CCCN3C)nc3c(F)c(-c4nc(N)cc(C)c4C(F)(F)F)c(Cl)cc23)C(C)C1, the IC50 (second compound 0.00316 µM) is reported as > 10000 nM, the IC50 (second compound 0.01 µM) is reported as > 10000 nM and the IC50 (second compound 0.0316 µM) is reported as > 10000 nM. For the same compound, the IC50 (second compound 0.1 µM) was > 10000 nM, the IC50 (second compound 0.316 µM) was > 10000 nM and the IC50 (second compound 1 µM) was > 10000 nM. It also gave a viability, T/C (second compound 0.00316 µM, first compound 0.0316 µM) of 109%, a viability, T/C (second compound 0.00316 µM, first compound 0.1 µM) of 98.7% and a viability, T/C (second compound 0.00316 µM, first compound 0.316 µM) of 103%. For the same compound, the viability, T/C (second compound 0.00316 µM, first compound 1 µM) was 91.2%, the viability, T/C (second compound 0.00316 µM, first compound 3.16 µM) was 97% and the viability, T/C (second compound 0.00316 µM, first compound 10 µM) was 92.5%. The viability, T/C (second compound 0.01 µM, first compound 0.0316 µM) was 93.7%, the viability, T/C (second compound 0.01 µM, first compound 0.1 µM) was 101% and the viability, T/C (second compound 0.01 µM, first compound 0.316 µM) was 90.7%. The viability, T/C (second compound 0.01 µM, first compound 1 µM) was 94.6%, the viability, T/C (second compound 0.01 µM, first compound 3.16 µM) was 106% and the viability, T/C (second compound 0.01 µM, first compound 10 µM) was 107%. For the same compound, the viability, T/C (second compound 0.0316 µM, first compound 0.0316 µM) was 90.5%, the viability, T/C (second compound 0.0316 µM, first compound 0.1 µM) was 104% and the viability, T/C (second compound 0.0316 µM, first compound 0.316 µM) was 101%. For the same compound, the viability, T/C (second compound 0.0316 µM, first compound 1 µM) was 102%, the viability, T/C (second compound 0.0316 µM, first compound 3.16 µM) was 103% and the viability, T/C (second compound 0.0316 µM, first compound 10 µM) was 94.9%. It also gave a viability, T/C (second compound 0.1 µM, first compound 0.0316 µM) of 94.2%, a viability, T/C (second compound 0.1 µM, first compound 0.1 µM) of 94.5% and a viability, T/C (second compound 0.1 µM, first compound 0.316 µM) of 105%. For the same compound, the viability, T/C (second compound 0.1 µM, first compound 1 µM) was 96.8%, the viability, T/C (second compound 0.1 µM, first compound 3.16 µM) was 111% and the viability, T/C (second compound 0.1 µM, first compound 10 µM) was 102%. The viability, T/C (second compound 0.316 µM, first compound 0.0316 µM) was 95.4%, the viability, T/C (second compound 0.316 µM, first compound 0.1 µM) was 105% and the viability, T/C (second compound 0.316 µM, first compound 0.316 µM) was 101%. For the same compound, the viability, T/C (second compound 0.316 µM, first compound 1 µM) was 96.8%, the viability, T/C (second compound 0.316 µM, first compound 3.16 µM) was 111% and the viability, T/C (second compound 0.316 µM, first compound 10 µM) was 92.5%. It also gave a viability, T/C (second compound 1 µM, first compound 0.0316 µM) of 98.6%, a viability, T/C (second compound 1 µM, first compound 0.1 µM) of 101% and a viability, T/C (second compound 1 µM, first compound 0.316 µM) of 95.7%. For the same compound, the viability, T/C (second compound 1 µM, first compound 1 µM) was 102%, the viability, T/C (second compound 1 µM, first compound 3.16 µM) was 104% and the viability, T/C (second compound 1 µM, first compound 10 µM) was 86.8%.
For `O=C(c1ccc(F)c(F)c1Nc1ccc(I)cc1F)N1CC(O)([C@@H]2CCCCN2)C1` + CCn1c(-c2cccnc2C(C)OC)c2c3cc(ccc31)N1CCOC(CC(NC(=O)C(C(C)C)N(C)C(=O)C3(F)CCN(C(=O)C#CC(C)(C)N(C)C)CC3)C(=O)N3CCCC(N3)C(=O)OCC(C)(C)C2)C1, the IC50 (second compound 0.000949 µM) was 628 nM, the IC50 (second compound 0.003 µM) was 537 nM and the IC50 (second compound 0.00949 µM) was 573 nM. For the same compound, the IC50 (second compound 0.03 µM) was 684 nM, the IC50 (second compound 0.0949 µM) was 580 nM and the IC50 (second compound 0.3 µM) was 604 nM. The viability, T/C (second compound 0.000949 µM, first compound 0.00316 µM) was 94%, the viability, T/C (second compound 0.000949 µM, first compound 0.01 µM) was 94.9% and the viability, T/C (second compound 0.000949 µM, first compound 0.0316 µM) was 101%. It also gave a viability, T/C (second compound 0.000949 µM, first compound 0.1 µM) of 91.3%, a viability, T/C (second compound 0.000949 µM, first compound 0.316 µM) of 88% and a viability, T/C (second compound 0.000949 µM, first compound 1 µM) of 24.4%. For the same compound, the viability, T/C (second compound 0.003 µM, first compound 0.00316 µM) was 102%, the viability, T/C (second compound 0.003 µM, first compound 0.01 µM) was 108% and the viability, T/C (second compound 0.003 µM, first compound 0.0316 µM) was 107%. The viability, T/C (second compound 0.003 µM, first compound 0.1 µM) was 83.2%, the viability, T/C (second compound 0.003 µM, first compound 0.316 µM) was 81.8% and the viability, T/C (second compound 0.003 µM, first compound 1 µM) was 18.4%. It also gave a viability, T/C (second compound 0.00949 µM, first compound 0.00316 µM) of 86%, a viability, T/C (second compound 0.00949 µM, first compound 0.01 µM) of 108% and a viability, T/C (second compound 0.00949 µM, first compound 0.0316 µM) of 102%. For the same compound, the viability, T/C (second compound 0.00949 µM, first compound 0.1 µM) was 88.8%, the viability, T/C (second compound 0.00949 µM, first compound 0.316 µM) was 82.1% and the viability, T/C (second compound 0.00949 µM, first compound 1 µM) was 20.9%. It also gave a viability, T/C (second compound 0.03 µM, first compound 0.00316 µM) of 97.7%, a viability, T/C (second compound 0.03 µM, first compound 0.01 µM) of 98.6% and a viability, T/C (second compound 0.03 µM, first compound 0.0316 µM) of 104%. It also gave a viability, T/C (second compound 0.03 µM, first compound 0.1 µM) of 91.2%, a viability, T/C (second compound 0.03 µM, first compound 0.316 µM) of 99% and a viability, T/C (second compound 0.03 µM, first compound 1 µM) of 26.4%. For the same compound, the viability, T/C (second compound 0.0949 µM, first compound 0.00316 µM) was 105%, the viability, T/C (second compound 0.0949 µM, first compound 0.01 µM) was 103% and the viability, T/C (second compound 0.0949 µM, first compound 0.0316 µM) was 103%. It also gave a viability, T/C (second compound 0.0949 µM, first compound 0.1 µM) of 81.8%, a viability, T/C (second compound 0.0949 µM, first compound 0.316 µM) of 86.8% and a viability, T/C (second compound 0.0949 µM, first compound 1 µM) of 22.3%. It also gave a viability, T/C (second compound 0.3 µM, first compound 0.00316 µM) of 89%, a viability, T/C (second compound 0.3 µM, first compound 0.01 µM) of 90.8% and a viability, T/C (second compound 0.3 µM, first compound 0.0316 µM) of 99%. It also gave a viability, T/C (second compound 0.3 µM, first compound 0.1 µM) of 82%, a viability, T/C (second compound 0.3 µM, first compound 0.316 µM) of 88.2% and a viability, T/C (second compound 0.3 µM, first compound 1 µM) of 20.3%.
